According to patent US5576335A, “Urea derivatives and their use as ACAT inhibitors” (Nisshin Flour Milling Co., Ltd., priority 1994, dated 1996):

What was measured:
[1] = tested on: ACAT; experiment: ACAT inhibitory activity (labelled cholesteryl ester formation from [1-14C]oleoyl-CoA, liver microsome fractions); format: biochemical; conditions: compound at 10^-7 M; rabbit liver microsomes; percent inhibition of formation of labelled cholesteryl esters
Procedure: 1. ACAT inhibitory activity
The enzyme preparation, ACAT was prepared from liver microsome fractions of male rabbits according to the method of E. E. Largis et al. (Journal of Lipid Research, Vol. 30, pages 681-690, 1989). The activity was calculated by assaying the amount of the labelled cholesteryl esters formed from [1-^14 C]oleoyl-CoA and endogenous cholesterol according to the method of Kazuichi NATORI et al. (Japan J. Pharmacol., Vol. 42, pages 517-523, 1986).
The result is shown in Table 1, in which percent inhibition of the formation of the labelled cholesteryl esters with a compound added at 10^-7 M is indicated as index for the ACAT inhibitory activity.

[2] = tested on: Human LDL; experiment: Antioxidative activity (inhibition of MDA formation in cupric sulfate-induced peroxidation of LDL); format: biochemical; conditions: compound 10^-5 M, cupric sulfate 5×10^-6 M, 5 hrs, percent inhibition of MDA formation vs control
Procedure: 2. Antioxidative activity
Human LDL was incubated in the presence of cupric sulfate (5×10^-6 M) and in the presence or absence of a compound (10^-5 M) for 5 hrs. After the incubation, the peroxidation of low-density lipoproteins (LDL) is evaluated by the formation of malondialdehyde (MDA), which is a sort of lipid peroxides according to the method of Simon J. T. Mao et al. (J. Med. Chem., Vol. 34, pages 298-302, 1991). Activity of the compound is shown by percent inhibition of the MDA formation as compared with control.

CCCCCCCNC(=O)Nc1ccccc1NC(=O)c1cc(C(C)(C)C)c(O)c(C(C)(C)C)c1 [Example 6, N-[2-(3-heptylureido)phenyl]-3,5-di-t-butyl-4-hydroxybenzamide]
ACAT Inhibition (%) [1]: 79% | Antioxidant Activity (%) [2]: 82%

CC(C)(C)c1cc(C(=O)Nc2ccccc2NC(=O)NCC(c2ccccc2)c2ccccc2)cc(C(C)(C)C)c1O [Example 7, N-[2-(3-(2,2-diphenylethyl)ureido]phenyl]-3,5-di-t-butyl-4-hydroxybenzamide]
ACAT Inhibition (%) [1]: 86% | Antioxidant Activity (%) [2]: 75%

CC(C)(C)c1cc(C(=O)Nc2ccccc2NC(=O)N(Cc2ccccc2)Cc2ccccc2)cc(C(C)(C)C)c1O [Example 8, N-[2-(3,3-dibenzylureido)phenyl]-3,5-di-t-butyl-4-hydroxybenzamide]
ACAT Inhibition (%) [1]: 85% | Antioxidant Activity (%) [2]: 83%

CC(C)(C)c1cc(C(=O)Nc2ccccc2NC(=O)NC23CC4CC(CC(C4)C2)C3)cc(C(C)(C)C)c1O [Example 11, N-[2-(3-adamantyl)ureido]phenyl-3,5-di-t-butyl-4-hydroxybenzamide]
ACAT Inhibition (%) [1]: 73%

CC(C)(C)c1cc(C(=O)Nc2ccccc2NC(=O)N(Cc2ccccc2)Cc2ccccn2)cc(C(C)(C)C)c1O [Example 12, N-[2-[3-benzyl-3-(2-pyridylmethyl)ureido]phenyl]-3,5-di-t-butyl-4-hydroxybenzamide]
ACAT Inhibition (%) [1]: 79%

CCCCCCCN(C)C(=O)Nc1ccccc1NC(=O)c1cc(C(C)(C)C)c(O)c(C(C)(C)C)c1 [Example 13, N-[2-(3-heptyl-3-methyl)ureido]phenyl-3,5-di-t-butyl-4-hydroxybenzamide]
ACAT Inhibition (%) [1]: 88%

CCCCCCCNC(=O)Nc1ccccc1NCc1cc(C(C)(C)C)c(O)c(C(C)(C)C)c1 [Example 14]
ACAT Inhibition (%) [1]: 81% | Antioxidant Activity (%) [2]: 96%

COc1ccc(NC(=O)N(Cc2ccccc2)Cc2ccccc2)c(NC(=O)c2cc(C(C)(C)C)c(O)c(C(C)(C)C)c2)c1 [Example 20, N-[2-(3,3-dibenzylureido)-5-methoxyphenyl]-3,5-di-t-butyl-4-hydroxybenzamide]
ACAT Inhibition (%) [1]: 99%

CCCCCCCN(C)C(=O)Nc1ccc(OC)cc1NC(=O)c1cc(C(C)(C)C)c(O)c(C(C)(C)C)c1 [Example 21, N-[2-(3-heptyl-3-methylureido)-5-methoxyphenyl]-3,5-di-t-butyl-4-hydroxybenzamide]
ACAT Inhibition (%) [1]: 93%

CCCCCCCNC(=O)Nc1ccc(F)cc1NC(=O)c1cc(C(C)(C)C)c(O)c(C(C)(C)C)c1 [Example 30, N-[5-fluoro-2-(3-heptylureido)phenyl]-3,5-di-t-butyl-4-hydroxybenzamide]
ACAT Inhibition (%) [1]: 78% | Antioxidant Activity (%) [2]: 79%

CCCCCCCN(C)C(=O)Nc1ccc(F)cc1NC(=O)c1cc(C(C)(C)C)c(O)c(C(C)(C)C)c1 [Example 32, N-[5-fluoro-2-(3-heptyl-3-methylureido)phenyl]-3,5-di-t-butyl-4-hydroxybenzamide]
ACAT Inhibition (%) [1]: 95%

CCCCCCCN(C)C(=O)Nc1cc(Cl)c(Cl)cc1NC(=O)c1cc(C(C)(C)C)c(O)c(C(C)(C)C)c1 [Example 35, N-[4,5-dichloro-2-(3-heptyl-3-methylureido)phenyl]-3,5-di-t-butyl-4-hydroxybenzamide]
ACAT Inhibition (%) [1]: 71%

CCCCCCCNC(=O)Nc1cc(OC)ccc1NC(=O)c1cc(C(C)(C)C)c(O)c(C(C)(C)C)c1 [Example 36, N-[2-(3-heptylureido)-4-methoxyphenyl]-3,5-di-t-butyl-4-hydroxybenzamide]
ACAT Inhibition (%) [1]: 77% | Antioxidant Activity (%) [2]: 92%
